Entries after “also recorded” stand apart in the source; their conditions may differ.
Assays:
Assay type in all cases: in vivo, human
[1] = system: skin tone of test subject having a natural skin tone of Fitzpatrick type IV; assay: Skin tone lightening by oral and topical MSM in combination with an exfoliate; conditions: oral and topical MSM plus exfoliate (e.g. twice-weekly 30% lactic or glycolic acid rinse)
Text: Referring again to FIG. 1, at step 104, a skin lightening effect may be enhanced by application of an exfoliant during the MSM treatment period. The exfoliant is believed to cause more darkly pigmented cells that formed during a pre-treatment period to be more rapidly shed. […] For example, the treatment regimen described in the second row of Table III may be combined with a twice-weekly rinse in an exfoliate solution. A suitable exfoliate solution may comprise, for example, a 30% solution of lactic or glycolic acid. A lactic acid solution may be more suitable for an individual with sensitive skin. In a test using an exfoliate in combination with oral and topical application, the test subject having a natural skin tone of Fitzpatrick type IV achieved and maintained a class III tone overall, with class II tone in constitutive skin areas.

[2] = system: skin tone of adult test subject, skin type IV (moderate brown), Fitzpatrick classification; assay: Skin tone lightening by oral MSM plus topical application of MSM in water solution (Table II); conditions: once daily, 3 months
Experimental: In an alternative embodiment, step 102 may be performed by oral delivery of MSM in combination with a topical application. […] Exemplary results are also shown in […], for the same test subject reported in Table I. Each row of the table indicates result for a procedure that was performed during one of successive 3-month periods. For each procedure described in Table II, MSM delivered was in an effective amount for the reported test subject. Again, some variation in effective amount should be expected between individuals. For the procedures described in Table II, a topical application may be prepared by dissolving the indicated amount of MSM in water to provide an approximately 15% by weight solution. For example, one tablespoon of MSM may be dissolved in 8 to 10 tablespoons of warm water to prepare the solution indicated in the first row. Then, the solution may be applied to the skin, which may be kept moistened with the solution for a period of approximately ten minutes or longer. The solution may be applied cover the entire body, or only in areas where greater lightening of skin tone is desired. The indicated application may be performed once daily for approximately a three-month period. […] Suitable formulations for transdermal patches to deliver MSM should be readily ascertained by one of ordinary skill.

[3] = system: skin tone of adult test subject, skin type IV (moderate brown), Fitzpatrick classification; assay: Skin tone lightening by oral MSM supplement taken twice daily (Table I); conditions: 3 months
Experimental: A first procedure for performing step 102 is described in Table I below, at various dosage levels and application periods. The application periods indicated in the table were carried out in immediately successive periods on the same individual. Exemplary results are also shown in Table I, for an adult test subject of approximately 45 kg weight having a skin type IV (moderate brown) according to the Fitzpatrick skin type classification. […] Because of variation between individuals, the effective amount of MSM that should be delivered to cause a noticeable change in skin tone may vary somewhat. For example, dosage should be calculated based on body weight. Based on the disclosure herein, one of ordinary skill should be able to determine an effective dosage regimen without undue experimentation. […] For the tested individual, the optimal dose for maximum skin lightening appears to be between 2000 and 4000 mg (45 to 90 mg/kg) daily.

[4] = oral MSM 2000 mg twice daily (4000 mg daily), successive period, same subject

CS(C)(=O)=O [MSM, methyl sulfonyl methane]
Skin tone achieved and maintained, constitutive skin areas [1]: class II
Skin tone achieved and maintained, overall [1]: class III
Results (observed skin tone), total body complexion ([2]; oral 2000 mg twice daily (4000 mg daily) + topical 1 Tablespoon (10,000 mg) MSM in water, approx. 15% solution): Light olive (skin type III)
Results (observed skin tone), elsewhere than constitutive skin ([2]; oral 2000 mg twice daily (4000 mg daily) + topical 2 Tablespoons (20,000 mg) MSM in water): light olive; elsewhere light olive
Results (observed skin tone) ([3]; oral MSM 100 mg twice daily (200 mg daily), adult person ~45 kg, skin type IV): No Change
Results (observed skin tone) ([3]; oral MSM 250 mg twice daily (500 mg daily), successive period, same subject): No Change
Results (observed skin tone) ([3]; oral MSM 500 mg twice daily (1000 mg daily), successive period, same subject): No Change
Results (observed skin tone), constitutive skin such as under the arms, inner thighs, chests and nipples ([3]; oral MSM 1000 mg twice daily (2000 mg daily), successive period, same subject): Light Brown (skin type III)
Results (observed skin tone), constitutive skin [3, 4]: Olive (skin type II) observed in
Results (observed skin tone), facultative skin such as the neck, face, forearms [3, 4]: Light Brown (skin type III)
Results, freckles on face [3, 4]: Freckles on face also lightened
Results (observed skin tone) ([3]; oral MSM 3000 mg twice daily (6000 mg daily), successive period, same subject): did not cause noticeable lightening relative to the 4000 mg regimen; also recorded: Same results as 4000 mg per day

Source: patent US20070264212A1, “Skin Lightening Method” (priority 2004, published 2007)
